In assay [1] the target is Recombinant human Cbl-b (aa 36-427) (Homo sapiens, UniProt Q13191). The assay can be described thus: Cbl-b Biochemical Assay (TR-FRET). The settings on record: read-out: TR-FRET hCbl-b IC50. (In general: TR-FRET usually uses a lanthanide donor and a delayed reading to cut background.)
The target of assay [2] is T1, Recombinant human c-Cbl (aa 47-435) (Homo sapiens, UniProt P22681).
T1 sequence (P22681 47-435): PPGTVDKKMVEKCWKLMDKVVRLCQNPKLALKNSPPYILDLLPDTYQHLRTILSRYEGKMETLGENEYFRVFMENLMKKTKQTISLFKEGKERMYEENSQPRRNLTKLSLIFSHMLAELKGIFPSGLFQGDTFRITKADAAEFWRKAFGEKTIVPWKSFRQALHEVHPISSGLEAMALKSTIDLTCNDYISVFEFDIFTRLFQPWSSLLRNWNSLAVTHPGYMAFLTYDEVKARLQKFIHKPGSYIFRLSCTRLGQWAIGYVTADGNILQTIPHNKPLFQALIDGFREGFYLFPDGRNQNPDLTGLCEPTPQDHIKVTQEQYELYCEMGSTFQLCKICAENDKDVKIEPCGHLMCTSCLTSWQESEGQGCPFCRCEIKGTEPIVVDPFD
The assay can be described thus: c-Cbl Biochemical Assay (TR-FRET). As to conditions: hc-Cbl Biochemical Assay (TR-FRET); read-out: TR-FRET hcCbl IC50.

In assay [3] the test system is Jurkat (clone E6-1) cells with NFAT luciferase reporter. The experiment in a line: Jurkat reporter assay (NFAT Luciferase). The class given is cell-based. As to conditions: Homo sapiens; Jurkat NFAT luciferase reporter cells, anti-CD3 stimulation, 6 hr; read-out: Jurkat NFAT EC50. (In general: A reporter such as luciferase makes a cellular process visible.)

Usually IC50 stands for the point on the concentration scale where inhibition reaches its midpoint. Broadly, the EC50 is the concentration at which the effect is half-maximal.

Bounds are passed on as bounds.

Sequence of Recombinant human Cbl-b (aa 36-427) (Q13191 36-427): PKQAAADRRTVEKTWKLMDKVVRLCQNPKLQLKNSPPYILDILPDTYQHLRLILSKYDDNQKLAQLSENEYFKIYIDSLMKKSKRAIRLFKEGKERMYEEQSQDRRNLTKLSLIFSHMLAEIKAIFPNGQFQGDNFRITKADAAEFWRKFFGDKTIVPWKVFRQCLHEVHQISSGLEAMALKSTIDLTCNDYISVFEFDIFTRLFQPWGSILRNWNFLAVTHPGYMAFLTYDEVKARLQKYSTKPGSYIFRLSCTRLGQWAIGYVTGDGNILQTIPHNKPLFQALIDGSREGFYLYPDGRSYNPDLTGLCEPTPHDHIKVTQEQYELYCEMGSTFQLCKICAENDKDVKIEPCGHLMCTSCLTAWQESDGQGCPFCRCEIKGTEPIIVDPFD

As for `Cn1cnnc1-c1cc(F)ccc1-c1cccc(-c2nc3cc(CO)cc(C(F)(F)F)c3[nH]2)c1` [BJ-1, (2-(4′-Fluoro-2′-(4-methyl-4H-1,2,4-triazol-3-yl)-[1,1′-biphenyl]-3-yl)-7-(trifluoromethyl)-1H-benzo[d]imidazol-5-yl)methanol], the IC50 in assay [1] was under 200 nM; in assay [2], 1000 to 10000 nM. Further, in assay [3], the EC50 is 1000 to 10000 nM.
Turning to `Cn1cnnc1-c1cc(F)ccc1-c1cccc(-c2nc3cc(CN[C@@H]4CCC[C@H]4O)cc(C(F)(F)F)c3[nH]2)c1` [BK-2, (1R,2R)-2-(((2-(4′-Fluoro-2′-(4-methyl-4H-1,2,4-triazol-3-yl)-[1,1′-biphenyl]-3-yl)-7-(trifluoromethyl)-1H-benzo[d]imidazol-5-yl)methyl)amino)cyclopentan-1-ol], the IC50 in assay [1] is under 200 nM; in assay [2] it was 1000 to 10000 nM. Moreover, the EC50 in assay [3] is 1000 to 10000 nM.
For `C[C@@H]1CN(Cc2cc(C(F)(F)F)c3[nH]c(-c4cccc(-c5ccc(F)cc5-c5nncn5C)c4)nc3c2)CCO1` [BL-2, (R)-4-((2-(4′-Fluoro-2′-(4-methyl-4H-1,2,4-triazol-3-yl)-[1,1′-biphenyl]-3-yl)-7-(trifluoromethyl)-1H-benzo[d]imidazol-5-yl)methyl)-2-methylmorpholine], the results for the IC50 in assay [1] and in assay [2] were under 200 nM and 1000 to 10000 nM, respectively. Besides, the EC50 in assay [3] lay within 1000 to 10000 nM.
With `Cn1cnnc1-c1cc(F)ccc1-c1cccc(-c2nc3cc(CN[C@@H]4CCC[C@@H]4O)cc(C(F)(F)F)c3[nH]2)c1` [BM-2, (1S,2R)-2-(((2-(4′-Fluoro-2′-(4-methyl-4H-1,2,4-triazol-3-yl)-[1,1′-biphenyl]-3-yl)-7-(trifluoromethyl)-1H-benzo[d]imidazol-5-yl)methyl)amino)cyclopentan-1-ol], the values for the IC50 in assay [1] and in assay [2] were under 200 nM and 1000 to 10000 nM, respectively. Moreover, the EC50 in assay [3] was in the range of 200 to 1000 nM.
The matching figures for `Cn1cnnc1-c1cc(F)ccc1-c1cccc(-c2nc3cc(CN[C@H]4CCC[C@@H]4O)cc(C(F)(F)F)c3[nH]2)c1` [BN-2, (1S,2S)-2-(((2-(4′-Fluoro-2′-(4-methyl-4H-1,2,4-triazol-3-yl)-[1,1′-biphenyl]-3-yl)-7-(trifluoromethyl)-1H-benzo[d]imidazol-5-yl)methyl)amino)cyclopentan-1-ol]: under 200 nM, 1000 to 10000 nM and 200 to 1000 nM.
As for `C[C@H]1CCCN(Cc2cc(C(F)(F)F)c3[nH]c(-c4cccc(-c5ccc(F)cc5-c5nncn5C)c4)nc3c2)C1` [BO-2, (S)-2-(4′-Fluoro-2′-(4-methyl-4H-1,2,4-triazol-3-yl)-[1,1′-biphenyl]-3-yl)-5-((3-methylpiperidin-1-yl)methyl)-7-(trifluoromethyl)-1H-benzo[d]imidazole], the IC50 in assay [1] was under 200 nM; in assay [2] it was 1000 to 10000 nM. In addition, the EC50 in assay [3] was 200 to 1000 nM.
The matching figures for `Cn1cnnc1-c1cc(F)ccc1-c1cccc(-c2nc3cc(CNCC4(O)CCC4)cc(C(F)(F)F)c3[nH]2)c1` [BP-1, 1-((((2-(4′-Fluoro-2′-(4-methyl-4H-1,2,4-triazol-3-yl)-[1,1′-biphenyl]-3-yl)-7-(trifluoromethyl)-1H-benzo[d]imidazol-5-yl)methyl)amino)methyl)cyclobutan-1-ol]: under 200 nM, 1000 to 10000 nM and 200 to 1000 nM.
Consider `Cn1cnnc1-c1cc(F)ccc1-c1cccc(-c2nc3cc(CNCC4(O)COC4)cc(C(F)(F)F)c3[nH]2)c1` [BQ-1, 3-((((2-(4′-Fluoro-2′-(4-methyl-4H-1,2,4-triazol-3-yl)-[1,1′-biphenyl]-3-yl)-7-(trifluoromethyl)-1H-benzo[d]imidazol-5-yl)methyl)amino)methyl)oxetan-3-ol], for which the IC50 was under 200 nM in assay [1] and 1000 to 10000 nM in assay [2]. Besides, the EC50 in assay [3] was in the range of 200 to 1000 nM.
The matching figures for `Cn1cnnc1-c1cc(F)ccc1-c1cccc(-c2nc3cc(CN4CC(C)(O)C4)cc(C(F)(F)F)c3[nH]2)c1` [BR-1, 1-((2-(4′-Fluoro-2′-(4-methyl-4H-1,2,4-triazol-3-yl)-[1,1′-biphenyl]-3-yl)-7-(trifluoromethyl)-1H-benzo[d]imidazol-5-yl)methyl)-3-methylazetidin-3-ol]: under 200 nM, 1000 to 10000 nM and 1000 to 10000 nM.
The matching figures for `Cn1cnnc1-c1cc(F)ccc1-c1cccc(-c2nc3cc(CNCC(C)(C)O)cc(C(F)(F)F)c3[nH]2)c1` [BT-1, 1-(((2-(4′-Fluoro-2′-(4-methyl-4H-1,2,4-triazol-3-yl)-[1,1′-biphenyl]-3-yl)-7-(trifluoromethyl)-1H-benzo[d]imidazol-5-yl)methyl)amino)-2-methylpropan-2-ol]: under 200 nM, 1000 to 10000 nM and 200 to 1000 nM.
The matching figures for `Cn1cnnc1-c1cc(F)ccc1-c1cccc(-c2nc3cc(CN4CCC5(CC4)CC5)cc(C(F)(F)F)c3[nH]2)c1` [BU-1, 5-((6-Azaspiro[2.5]octan-6-yl)methyl)-2-(4′-fluoro-2′-(4-methyl-4H-1,2,4-triazol-3-yl)-[1,1′-biphenyl]-3-yl)-7-(trifluoromethyl)-1H-benzo[d]imidazole]: under 200 nM, 1000 to 10000 nM and 200 to 1000 nM.
In the case of `Cn1cnnc1-c1cc(F)ccc1-c1cccc(-c2nc3cc(CNCC4(O)CC4)cc(C(F)(F)F)c3[nH]2)c1` [BV-1, 1-((((2-(4′-Fluoro-2′-(4-methyl-4H-1,2,4-triazol-3-yl)-[1,1′-biphenyl]-3-yl)-7-(trifluoromethyl)-1H-benzo[d]imidazol-5-yl)methyl)amino)methyl)cyclopropan-1-ol], the 50% inhibitory concentration (IC50) was under 200 nM in assay [1] and 1000 to 10000 nM in assay [2]. The EC50 in assay [3] was in the range of 200 to 1000 nM.
The matching figures for `Cn1cnnc1-c1cc(F)ccc1-c1cccc(-c2nc3cc(CN[C@@H]4CCC[C@@H]4O)ccc3[nH]2)c1` [BY-1, (1S,2R)-2-(((2-(4′-Fluoro-2′-(4-methyl-4H-1,2,4-triazol-3-yl)-[1,1′-biphenyl]-3-yl)-1H-benzo[d]imidazol-5-yl)methyl)amino)cyclopentan-1-ol]: under 200 nM, 1000 to 10000 nM and 1000 to 10000 nM.
The like results for `CN1CCC[C@H](NCc2cc(C(F)(F)F)c3[nH]c(-c4cccc(-c5ccc(F)cc5-c5nncn5C)c4)nc3c2)C1=O` [CC-2, (S)-3-(((2-(4′-Fluoro-2′-(4-methyl-4H-1,2,4-triazol-3-yl)-[1,1′-biphenyl]-3-yl)-7-(trifluoromethyl)-1H-benzo[d]imidazol-5-yl)methyl)amino)-1-methylpiperidin-2-one, formic Acid] were, in that order, under 200 nM, 1000 to 10000 nM and 1000 to 10000 nM.
The matching figures for `Cn1cnnc1-c1cc(F)ccc1-c1cccc(-c2nc3cc(CNCC(C)(C)F)cc(C(F)(F)F)c3[nH]2)c1` [CD-2, 2-Fluoro-N-((2-(4′-fluoro-2′-(4-methyl-4H-1,2,4-triazol-3-yl)-[1,1′-biphenyl]-3-yl)-7-(trifluoromethyl)-1H-benzo[d]imidazol-5-yl)methyl)-2-methylpropan-1-amine, Formic Acid]: under 200 nM, 1000 to 10000 nM and 200 to 1000 nM.

Source of the values: patent US20250163038A1, “CBL-B MODULATORS AND USES THEREOF” (Nimbus Clio, Inc., priority 2021, published 2025).
